What all share (assay type): cell-based
One assay concerns A2780 ovarian cells. Description: A2780 Ovarian Cell Proliferation Assay in Lipid Reduced Medium, with and without Palmitate (MTT). The note with it: Homo sapiens, 10% lipid-reduced serum, 96 h. Here is the method: The biological assays described below correspond to comparative assays for ovarian cell proliferation.
2500 cells were seeded in a 96-well clear well plate in 200 μL RPM11640 with 10% Fetal Calf Serum (Hyclone), and incubated at 37° C., 5% CO2, Blanks were wells without cells. The next day the culture medium was aspirated and replaced by 160 μL culture medium with 10% Lipid-Reduced Serum (LRS, Hyclone). […] After 96 h incubation, an MTT assay was performed.
2500 cells were seeded in a 96-well clear well plate in 200 μL RPM11640 with 10% Fetal Calf Serum (Hyclone), and incubated at 37° C., 5% CO2. Blanks were wells without cells. The next day the culture medium was aspirated and replaced by 160 μL culture medium with 10% Lipid-Reduced Serum (LRS, Hyclone). 20 μL test compound (at concentrations of 30 μM, 10 μM, 3 μM, 1 μM, 0.30 μM, 0.10 μM, 0.03 μM and 0.01 μM)/DMSO dilution followed by 20 μL ethanol-BSA solution were added to a final concentrations of 0.2% DMSO, 0.2% fatty-acid-free BSA, 0.25% ethanol. After 96 h incubation an MTT assay was performed.
Raw data generated by the instrument were normalized to % Controlmin values, which were calculated as: % Controlmin=100*(x−mLC)/(mHC−mLC)
where mLC and mHC were the means of the low control wells and high control wells on the plate, after manual exclusion of outliers. A plot of Controlmin versus test compound concentration was fitted to a 4-parameter logistic curve using a non-linear least squares regression method.

The test system of assay [1] is PC-3M-Luc-C6 prostate cells. Description: In Vitro PC-3M-Luc-C6 Prostate Cell Proliferation Assay in Lipid Reduced Medium. The note with it: 10% lipid reduced serum, 96 h, ATP-glow luminescence; for IC50: Prostate cell, read-out: pIC50 PC-3M-Luc-C6 prostate cell (converted). Here is the method: PC-3M-Luc-C6 prostate cells were obtained from Xenogen Corporation. Cells were maintained in MEM supplemented with 10% Fetal Calf Serum (FCS, Hyclone), 2 mM glutamine, 1 mM sodium pyruvate, 1% BME vitamins (available from for example, Sigma Aldrich), 0.1 mM non Essential Amino Acid and 50 μg/ml Gentamicin. The cells were passaged twice a week.
The next day 10 μl test compound/DMSO diluted in medium was added (3E-5M, 1E-5M, 3E-6M,1E-6M, 3E-7M, 1E-7M, 3E-8M, 1E-8M final concentration). Compounds were tested in duplicate. After 96 h incubation at 37° C., 5% CO2 25 μl ATP-glow mix was added. The plate was incubated for 30 min at 37° C. and luminescence was measured with the Envision.
(§1) Analysis: Determination of pIC50 Values
(§2) pIC50 values were calculated as follows. Raw data generated by the instruments were normalized to % Controlmin values, which were calculated as: % Controlmin=100*(x−mLC)/(mHC−mLC),
(§3) where mLC and mHC are the means of the low control wells and high control wells on the plate, after manual exclusion of outliers. The relation between the % Controlmin values and concentration was fitted to a 4-parameter logistic curve using a non-linear least squares regression method to determine the pIC50 value. Outlying data points were excluded manually to get a correct fit. The pIC50 corresponds to −log 10(IC50), if the IC50 is expressed in molar units (http://www.ncbi.nlm.nih.qovibooks/NBK91994). The IC50 parameter was always determined by non-linear regression, but one or more of the other parameters may have been held fixed on a relevant input value, such as 0 for the bottom values.

The subject of assay [2] is LNCaP_Vancouver prostate cells. Description: In Vitro LNCaP Vancouver Prostate Cell Proliferation Assay in Lipid Reduced Medium. The settings on record: 10% lipid reduced serum, 96 h, ATP-glow luminescence; for IC50: Prostate cell, read-out: pIC50 LNCaP_Vancouver prostate cell (converted). Here is the method: LNCaP_Vancouver prostate cells were obtained from the Vancouver Prostate Cancer Centre.
The next day 10 μl of test compound/DMSO diluted in medium was added (3E-5M, 1E-5M, 3E-6M,1E-6M, 3E-7M, 1E-7M, 3E-8M, 1E-8M final concentration). Compounds were tested in duplicate. After 96 h incubation at 37° C., 5% CO2 25 μl ATP-glow mix was added. The plate was incubated for 30 min at 37° C. and luminescence was measured with the Envision.
as §1, §2, §3

Where [3] appears, read: 25 μM palmitate added (control), read-out: pIC50 With Palmitate (converted).
[4] abbreviates: no palmitate, read-out: pIC50 Without Palmitate (converted).

Where two headings read alike, the source gives them in different places. Bounds are passed on as bounds.

In the case of `CC1(C)N=C(c2ccc(-c3nc4ccccc4s3)cc2)N(C[C@@H]2CCN(C(=O)C3CC3)C2)C1=O` [Compound 13, (R)-2-(4-(benzo[d]thiazol-2-yl)phenyl)-1-((1-(cyclopropanecarbonyl)pyrrolidin-3-yl)methyl)-4,4-dimethyl-1H-imidazol-5(4H)-one], the values for the IC50 (in the assay on A2780 ovarian cells (setting [3]); in the assay on A2780 ovarian cells (setting [4]); in assay [1]) were greater than 10000 nM, 3390 nM and 2090 nM, respectively.
Consider `Cn1cc(-c2ccc(-c3ccc(C4=NC(C)(C)C(=O)N4CC4CN(C(=O)C5CC5)C4)c(F)c3)cc2)cn1` [Compound 33, 1-((1-(cyclopropanecarbonyl)azetidin-3-yl)methyl)-2-(3-fluoro-4′-(1-methyl-1H-pyrazol-4-yl)-[1,1′-biphenyl]-4-yl)-4,4-dimethyl-1H-imidazol-5(4H)-one], for which the figures for the IC50 (in the assay on A2780 ovarian cells (setting [3]); with A2780 ovarian cells (setting [4]); in assay [2]) were greater than 10000 nM, 245 nM and 2040 nM, respectively.
With `CC1(C)N=C(c2ccc(-c3ccc4cccc(F)c4c3)cc2)N(CC2CN(C(=O)C3CC3)C2)C1=O` [Compound 40, 1-((1-(cyclopropanecarbonyl)azetidin-3-yl)methyl)-2-(4-(8-fluoronaphthalen-2-yl)phenyl)-4,4-dimethyl-1H-imidazol-5(4H)-one], the IC50 is 5620 nM in the assay on A2780 ovarian cells (setting [3]), 468 nM in the assay on A2780 ovarian cells (setting [4]) and 2040 nM in assay [2].
Turning to `CC1(C)N=C(c2ccc(-c3ccc4cncnc4c3)cc2F)N(CC2CN(C(=O)C3CC3)C2)C1=O` [Compound 43, 1-((1-(cyclopropanecarbonyl)azetidin-3-yl)methyl)-2-(2-fluoro-4-(quinazolin-7-yl)phenyl)-4,4-dimethyl-1H-imidazol-5(4H)-one], the “pIC50 LNCaP_Vancouver prostate cell” value in assay [2] came out at 5.63. The “pIC50 PC-3M-Luc-C6 prostate cell” value in assay [1] stood at 6.06.
On to `CC1(C)N=C(c2ccc(-c3ccc(-c4ccncc4)cc3)cc2F)N(C[C@@H]2CCN(C(=O)C3CC3)C2)C1=O` [Compound 46, (R)-1-((1-(cyclopropanecarbonyl)pyrrolidin-3-yl)methyl)-2-(3-fluoro-4′-(pyridin-4-yl)-[1,1′-biphenyl]-4-yl)-4,4-dimethyl-1H-imidazol-5(4H)-one], for which the IC50 is 9550 nM with A2780 ovarian cells (setting [3]), 52.5 nM with A2780 ovarian cells (setting [4]) and 407 nM in assay [2].
In the case of `CC1(C)N=C(c2ccc(-c3cccc4ncccc34)cc2F)N(C[C@@H]2CCN(C(=O)C3CC3)C2)C1=O` [Compound 47, (R)-1-((1-(cyclopropanecarbonyl)pyrrolidin-3-yl)methyl)-2-(2-fluoro-4-(quinolin-5-yl)phenyl)-4,4-dimethyl-1H-imidazol-5(4H)-one], the IC50 is roughly 10000 nM in the assay with A2780 ovarian cells (setting [3]), roughly 933 nM in the assay with A2780 ovarian cells (setting [4]) and 3550 nM in assay [2].
Take `CC1(C)N=C(c2ccc(-c3cnc4ccccc4c3)cc2F)N(C[C@@H]2CCN(C(=O)C3CC3)C2)C1=O` [Compound 48, (R)-1-((1-(cyclopropanecarbonyl)pyrrolidin-3-yl)methyl)-2-(2-fluoro-4-(quinolin-3-yl)phenyl)-4,4-dimethyl-1H-imidazol-5(4H)-one]: the IC50 in the assay with A2780 ovarian cells (setting [3]) is greater than 10000 nM; with A2780 ovarian cells (setting [4]), 537 nM; in assay [2], 3980 nM.
On to `Cn1ncc2cc(-c3ccc(C4=NC(C)(C)C(=O)N4C[C@@H]4CCN(C(=O)C5CC5)C4)c(F)c3)ccc21` [Compound 53, (R)-1-((1-(cyclopropanecarbonyl)pyrrolidin-3-yl)methyl)-2-(2-fluoro-4-(1-methyl-1H-indazol-5-yl)phenyl)-4,4-dimethyl-1H-imidazol-5(4H)-one], for which the IC50 is 724 nM in assay [2] and 132 nM in assay [1].
For the molecule `CC1(C)N=C(c2ccc(-c3nc4ccccc4[nH]3)cc2F)N(C[C@@H]2CCN(C(=O)C3CC3)C2)C1=O` [Compound 61, (R)-2-(4-(1H-benzo[d]imidazol-2-yl)-2-fluorophenyl)-1-((1-(cyclopropanecarbonyl)pyrrolidin-3-yl)methyl)-4,4-dimethyl-1H-imidazol-5(4H)-one], the IC50 in assay [2] is 5010 nM.
Take `CC1(C)N=C(c2ccc(-c3ccc4cc(F)ccc4c3)cc2F)N(CC2CN(C(=O)C3(O)CC3)C2)C1=O` [Compound 79, 2-(2-fluoro-4-(6-fluoronaphthalen-2-yl)phenyl)-1-((1-(1-hydroxycyclopropanecarbonyl)azetidin-3-yl)methyl)-4,4-dimethyl-1H-imidazol-5(4H)-one]: the IC50 is greater than 10000 nM with A2780 ovarian cells (setting [3]), 123 nM in the assay on A2780 ovarian cells (setting [4]) and 70.8 nM in assay [1].
The like results for `Cc1cc(-c2ccc3c(cnn3C)c2)ccc1C1=NC(C)(C)C(=O)N1C[C@@H]1CCN(C(=O)C2(C)CC2)C1` [Compound 80, (R)-4,4-dimethyl-2-(2-methyl-4-(1-methyl-1H-indazol-5-yl)phenyl)-1-((1-(1-methylcyclopropanecarbonyl)pyrrolidin-3-yl)methyl)-1H-imidazol-5(4H)-one] were, in that order, greater than 10000 nM, 45.7 nM and 17 nM.
Regarding `Cn1cc(-c2ccc(-c3ccc(C4=NC(C)(C)C(=O)N4CC4CN(C(=O)C5(O)CC5)C4)c(F)c3)cc2)cn1` [Compound 81, 2-(3-fluoro-4′-(1-methyl-1H-pyrazol-4-yl)-[1,1′-biphenyl]-4-yl)-1-((1-(1-hydroxycyclopropanecarbonyl)azetidin-3-yl)methyl)-4,4-dimethyl-1H-imidazol-5(4H)-one], the IC50 with A2780 ovarian cells (setting [3]) was greater than 10000 nM; in the assay with A2780 ovarian cells (setting [4]), 229 nM; in assay [1], 661 nM.
The like results for `Cc1cc(-c2ccc3cc(F)ccc3c2)ccc1C1=NC(C)(C)C(=O)N1CC1CN(C(=O)C2(C)CC2)C1` [Compound 82] were, in that order, 4370 nM, 14.5 nM and 64.6 nM.
Consider `Cc1cc(-c2ccc3c(c2)ncn3C)ccc1C1=NC(C)(C)C(=O)N1CC1CN(C(=O)C2(C)CC2)C1` [Compound 83, 4,4-dimethyl-2-(2-methyl-4-(1-methyl-1H-benzo[d]imidazol-5-yl)phenyl)-1-((1-(1-methylcyclopropanecarbonyl)azetidin-3-yl)methyl)-1H-imidazol-5(4H)-one], for which the IC50 is greater than 10000 nM in the assay on A2780 ovarian cells (setting [3]), 25.7 nM in the assay on A2780 ovarian cells (setting [4]) and 42.7 nM in assay [1].
Turning to `Cc1cc(-c2ccc(-c3cnn(C)c3)cc2)ccc1C1=NC(C)(C)C(=O)N1C[C@@H]1CCN(C(=O)C2(C)CC2)C1` [Compound 84], the IC50 is 4370 nM with A2780 ovarian cells (setting [3]), 3.31 nM in the assay with A2780 ovarian cells (setting [4]) and 7.76 nM in assay [1].
For `Cc1cc(-c2ccc3c(c2)ncn3C)ccc1C1=NC(C)(C)C(=O)N1C[C@@H]1CCN(C(=O)C2(C)CC2)C1` [Compound 85, (R)-4,4-dimethyl-2-(2-methyl-4-(1-methyl-1H-benzo[d]imidazol-5-yl)phenyl)-1-((1-(1-methylcyclopropanecarbonyl)pyrrolidin-3-yl)methyl)-1H-imidazol-5(4H)-one], in that order: greater than 10000 nM, 3.89 nM and roughly 10.7 nM.
Take `Cc1cc(-c2ccc3cc(F)ccc3c2)ccc1C1=NC(C)(C)C(=O)N1C[C@@H]1CCN(C(=O)C2(C)CC2)C1` [Compound 86, (R)-2-(4-(6-fluoronaphthalen-2-yl)-2-methylphenyl)-4,4-dimethyl-1-((1-(1-methylcyclopropanecarbonyl)pyrrolidin-3-yl)methyl)-1H-imidazol-5(4H)-one]: the IC50 was roughly 7760 nM in the assay on A2780 ovarian cells (setting [3]), 3.98 nM in the assay on A2780 ovarian cells (setting [4]) and 6.17 nM in assay [1].

Values taken from patent US10413545B2, “Imidazolin-5-one derivative useful as FASN inhibitors for the treatment of cancer” (Janssen Pharmaceutica NV, priority 2013, dated 2019).
